One molecule from US20230140972A1, “GLYCEROL GLUCOSIDE-BASED COMPOUND AND COMPOSITION COMPRISING SAME FOR ULTRAVIOLET LIGHT SHIELD OR ANTI-INFLAMMATION” (ATHENA CO., LTD., priority 2020, published 2023) can be followed below.

This data set relates to RAW264.7 cells. As to the kind of experiment: Cell viability measurement using MTT assay. Particulars: vs untreated group. Type of data set: cell-based, mouse. The protocol: In order to evaluate a cell viability of the glycerol glucoside-based compound sample (EPS-S), an MTT assay was performed.
Specifically, subcultured RAW264.7 cells and HDF cells were aliquoted into a 96-well plate at 1×10^5, respectively, and cultured for 24 hours at 37° C. in an incubator containing 5% carbon dioxide, and then, a culture media was replaced with a serum-free media. Then, each sample was treated onto each cell by concentration. After culturing for 24 hours, an MTT solution was put into each well, reacted for 2 hours under light blocking, a supernatant was removed, a formed formazan was completely dissolved in DMSO, and an absorbance was measured at 540 nm with a microplate reader. In such a case, SDS was used as a positive control group. The test result value was calculated as in Equation 1 below and expressed as the cell viability compared to an untreated group, and was expressed as a mean±standard deviation.

Where “and” joins values, the source holds several entries; their conditions need not be identical. Identical values can stand only once.

What is called cell viability is a per cent measure of how many cells are alive, often set against a control. Turning to `CCCCCCCCCCCCOS(=O)(=O)[O-].[Na+]` [SDS], the cell viability was 99.95% and 99.95 ± 0.72% (24 h, 1 ppm); 96.29% and 96.29 ± 0.16% (24 h, 10 ppm); 7.75% and 7.75 ± 0.14% (24 h, 100 ppm); 6.67% and 6.67 ± 0.16% (24 h, 1,000 ppm).
